This note sets out measurements from patent US8513238B2 (Hoffmann-La Roche Inc., priority 2010, dated 2013).

Counter-ions that a name gives are not always drawn.

T1 sequence (P37288 whole entry): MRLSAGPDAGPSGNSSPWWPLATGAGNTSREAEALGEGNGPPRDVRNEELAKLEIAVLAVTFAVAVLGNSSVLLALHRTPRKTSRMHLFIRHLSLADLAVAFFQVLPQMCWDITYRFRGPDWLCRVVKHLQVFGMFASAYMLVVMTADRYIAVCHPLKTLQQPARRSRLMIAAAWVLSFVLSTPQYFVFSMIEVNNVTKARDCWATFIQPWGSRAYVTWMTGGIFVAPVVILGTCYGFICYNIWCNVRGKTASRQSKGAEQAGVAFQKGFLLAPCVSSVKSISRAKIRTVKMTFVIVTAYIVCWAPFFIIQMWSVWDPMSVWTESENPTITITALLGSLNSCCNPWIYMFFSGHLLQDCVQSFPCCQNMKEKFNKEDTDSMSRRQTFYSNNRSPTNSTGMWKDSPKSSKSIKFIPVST

The first experiment has as its target T1, human V1a receptor (Homo sapiens, UniProt P37288).
T1 construct: expressed in transfected cells; host or cells: HEK293 cells, transiently transfected; membranes prepared
The experiment is described as follows: human V1a receptor binding (3H-Vasopressin SPA, HEK293 membranes). The following applies: membranes of HEK293 cells transiently transfected with human V1a receptor, Ki by Cheng-Prussoff. As for the experimental part: The human V1a receptor was cloned by RT-PCR from total human liver RNA. The coding sequence was subcloned in an expression vector after sequencing to confirm the identity of the amplified sequence. […] Cell membranes were prepared from HEK293 cells transiently transfected with the expression vector and grown in 20 liter fermenters with the following protocol.
50 g of cells are resuspended in 30 ml freshly prepared ice cold Lysis buffer (50 mM HEPES, 1 mM EDTA, 10 mM magnesium dichloride adjusted to pH=7.4+complete cocktail of protease inhibitor (Roche Diagnostics)). Homogenized with Polytron for 1 min and sonicated on ice for 2×2 minutes at 80% intensity (Vibracell sonicator). The preparation is centrifuged 20 min at 500 g at 4° C., the pellet is discarded and the supernatant centrifuged 1 hour at 43,000 g at 4° C. (19,000 rpm). The pellet is resuspended in 12.5 ml Lysis buffer+12.5 ml sucrose 20% and homogenized using a Polytron for 1-2 min. The protein concentration is determined by the Bradford method and aliquots are stored at −80° C. until use. For binding studies 60 mg Yttrium silicate SPA beads (Amersham®) are mixed with an aliquot of membrane in binding buffer (50 mM Tris, 120 mM sodium chloride, 5 mM potassium chloride, 2 mM calcium dichloride, 10 mM magnesium dichloride) for 15 minutes with mixing. 50 μl of bead/membrane mixture is then added to each well of a 96 well plate, followed by 50 μl of 4 nM 3H-Vasopressin (American Radiolabeled Chemicals). For total binding measurement 100 μl of binding buffer are added to the respective wells, for non-specific binding 100 μl of 8.4 mM cold vasopressin and for compound testing 100 μl of a serial dilution of each compound in 2% dimethyl sulfoxide. The plate is incubated 1 h at room temperature, centrifuged 1 min at 1000 g and counted on a Packard Top-Count. Non-specific binding counts are subtracted from each well and data is normalized to the maximum specific binding set at 100%. To calculate an IC50 the curve is fitted using a non-linear regression model (XLfit) and the Ki is calculated using the Cheng-Prussoff equation.
As to `Cc1cc([C@H]2CC[C@H](c3nnc4n3-c3ccc(Cl)cc3CN(C(C)C)C4)CC2)no1` [Example 26, trans-8-Chloro-5-isoproyl-1-[4-(5-methyl-isoxazol-3-yl)-cyclohexyl]-5,6-dihydro-4H-2,3,5,10b-tetraaza-benzo[e]azulene], the “pKi (hV1a)” value is recorded as 9.45.

Staying with this experiment, now noted: membranes of HEK293 cells transiently transfected with human V1a receptor, Ki by Cheng-Prussoff, read-out: pKi (hV1a) (converted).
`Cc1cc([C@H]2CC[C@H](c3nnc4n3-c3ccc(Cl)cc3CNC4)CC2)no1` [Example 23, trans-8-Chloro-1-[4-(5-methyl-isoxazol-3-yl)-cyclohexyl]-5,6-dihydro-4H-2,3,5,10b-tetraaza-benzo[e]azulene hydrochloride]: the Ki was 6.46 nM.

In the case of `Cc1cc([C@H]2CC[C@H](c3nnc4n3-c3ccc(Cl)cc3CN(C)C4)CC2)no1` [Example 24, trans-8-Chloro-1-[4-(5-methyl-isoxazol-3-yl)-cyclohexyl]-5-methyl-5,6-dihydro-4H-2,3,5,10b-tetraaza-benzo[e]azulene], the Ki was 1.2 nM. On the same count and under the same terms, the same measure for `CCN1Cc2cc(Cl)ccc2-n2c(nnc2[C@H]2CC[C@H](c3cc(C)on3)CC2)C1` [Example 25, trans-8-Chloro-5-ethyl-1-[4-(5-methyl-isoxazol-3-yl)-cyclohexyl]-5,6-dihydro-4H-2,3,5,10b-tetraaza-benzo[e]azulene]: 1.74 nM; for `Cc1cc([C@H]2CC[C@H](c3nnc4n3-c3ccc(Cl)cc3CN(CC(F)F)C4)CC2)no1` [Example 28, trans-8-Chloro-5-(2,2-difluoro-ethyl)-1-[4-(5-methyl-isoxazol-3-yl)-cyclohexyl]-5,6-dihydro-4H-2,3,5,10b-tetraaza-benzo[e]azulene]: 0.603 nM. On the same count and under the same terms, the same measure for `COCCN1Cc2cc(Cl)ccc2-n2c(nnc2[C@H]2CC[C@H](c3cc(C)on3)CC2)C1` [Example 29, trans-8-Chloro-5-(2-methoxy-ethyl)-1-[4-(5-methyl-isoxazol-3-yl)-cyclohexyl]-5,6-dihydro-4H-2,3,5,10b-tetraaza-benzo[e]azulene]: 1.58 nM.

On to `CNCCN1Cc2cc(Cl)ccc2-n2c(nnc2[C@H]2CC[C@H](c3cc(C)on3)CC2)C1` [Example 30, trans-(2-{8-Chloro-1-[4-(5-methyl-isoxazol-3-yl)-cyclohexyl]-4H,6H-2,3,5,10b-tetraaza-benzo[e]azulen-5-yl}-ethyl)-methyl-amine], for which the Ki is 25.1 nM.

For `CC(=O)N1Cc2cc(Cl)ccc2-n2c(nnc2[C@H]2CC[C@H](c3cc(C)on3)CC2)C1` [Example 31, trans-1-{8-Chloro-1-[4-(5-methyl-isoxazol-3-yl)-cyclohexyl]-4H,6H-2,3,5,10b-tetraaza-benzo[e]azulen-5-yl}-ethanone], the Ki is 1.74 nM. Same read-out and setting: the same measure for `Cc1cc([C@H]2CC[C@H](c3nnc4n3-c3ccc(Cl)cc3CN(C(=O)CO)C4)CC2)no1` [Example 32, trans-1-{8-Chloro-1-[4-(5-methyl-isoxazol-3-yl)-cyclohexyl]-4H,6H-2,3,5,10b-tetraaza-benzo[e]azulen-5-yl}-2-hydroxy-ethanone]: 2.88 nM. Same read-out and setting: the same measure for `Cc1cc([C@H]2CC[C@H](c3nnc4n3-c3ccc(Cl)cc3CN(C(=O)CN(C)C)C4)CC2)no1` [Example 33, trans-1-{8-Chloro-1-[4-(5-methyl-isoxazol-3-yl)-cyclohexyl]-4H,6H-2,3,5,10b-tetraaza-benzo[e]azulen-5-yl}-2-dimethylamino-ethanone hydroformate]: 2 nM; for `Cc1cc([C@H]2CC[C@H](c3nnc4n3-c3ccc(Cl)cc3CN(S(C)(=O)=O)C4)CC2)no1` [Example 34, trans-8-Chloro-5-methanesulfonyl-1-[4-(5-methyl-isoxazol-3-yl)-cyclohexyl]-5,6-dihydro-4H-2,3,5,10b-tetraaza-benzo[e]azulene]: 0.275 nM. On the same count and under the same terms, the same measure for `Cc1cc([C@H]2CC[C@H](c3nnc4n3-c3ccc(Cl)cc3CN(S(=O)(=O)N(C)C)C4)CC2)no1` [Example 35, trans-8-Chloro-1-[4-(5-methyl-isoxazol-3-yl)-cyclohexyl]-4H,6H-2,3,5,10b-tetraaza-benzo[e]azulene-5-sulfonic acid dimethylamide]: 0.501 nM.

As for `Cc1cc([C@H]2CC[C@H](c3nnc4n3-c3ccc(F)cc3CN(C(=O)OC(C)(C)C)C4)CC2)no1` [Example 36, trans-8-Fluoro-1-[4-(5-methyl-isoxazol-3-yl)-cyclohexyl]-4H,6H-2,3,5,10b-tetraaza-benzo[e]azulene-5-carboxylic acid tert-butyl ester], the Ki was 0.776 nM. On the same count and under the same terms, the same measure for `Cc1cc([C@H]2CC[C@H](c3nnc4n3-c3ccc(F)cc3CNC4)CC2)no1` [Example 37, trans-8-Fluoro-1-[4-(5-methyl-isoxazol-3-yl)-cyclohexyl]-5,6-dihydro-4H-2,3,5,10b-tetraaza-benzo[e]azulene]: 91.2 nM; for `Cc1cc([C@H]2CC[C@H](c3nnc4n3-c3ccc(F)cc3CN(C)C4)CC2)no1` [Example 38, trans-8-Fluoro-1-[4-(5-methyl-isoxazol-3-yl)-cyclohexyl]-5-methyl-5,6-dihydro-4H-2,3,5,10b-tetraaza-benzo[e]azulene]: 18.6 nM; for `Cc1onc([C@H]2CC[C@H](c3nnc4n3-c3ccc(Cl)cc3CN(C(=O)OC(C)(C)C)C4)CC2)c1C` [Example 39, trans-8-Chloro-1-[4-(4,5-dimethyl-isoxazol-3-yl)-cyclohexyl]-4H,6H-2,3,5,10b-tetraaza-benzo[e]azulene-5-carboxylic acid tert-butyl ester]: 0.2 nM. On the same count and under the same terms, the same measure for `Cc1onc([C@H]2CC[C@H](c3nnc4n3-c3ccc(Cl)cc3CNC4)CC2)c1C` [Example 40, trans-8-Chloro-1-[4-(4,5-dimethyl-isoxazol-3-yl)-cyclohexyl]-5,6-dihydro-4H-2,3,5,10b-tetraaza-benzo[e]azulene]: 4.79 nM; for `Cc1onc([C@H]2CC[C@H](c3nnc4n3-c3ccc(Cl)cc3CN(C)C4)CC2)c1C` [Example 41, trans-8-Chloro-1-[4-(4,5-dimethyl-isoxazol-3-yl)-cyclohexyl]-5-methyl-5,6-dihydro-4H-2,3,5,10b-tetraaza-benzo[e]azulene]: 0.501 nM; for `Cc1onc([C@H]2CC[C@H](c3nnc4n3-c3ccc(Cl)cc3CN(C(=O)OC(C)(C)C)C4)CC2)c1Cl` [Example 42, trans-8-Chloro-1-[4-(4-chloro-5-methyl-isoxazol-3-yl)-cyclohexyl]-4H,6H-2,3,5,10b-tetraaza-benzo[e]azulene-5-carboxylic acid tert-butyl ester]: 0.398 nM. In the case of `Cc1onc([C@H]2CC[C@H](c3nnc4n3-c3ccc(Cl)cc3CNC4)CC2)c1Cl` [Example 43, trans-8-Chloro-1-[4-(4-chloro-5-methyl-isoxazol-3-yl)-cyclohexyl]-5,6-dihydro-4H-2,3,5,10b-tetraaza-benzo[e]azulene], the Ki is 5.89 nM.

In the case of `Cc1onc([C@H]2CC[C@H](c3nnc4n3-c3ccc(Cl)cc3CN(C)C4)CC2)c1Cl` [Example 44, trans-8-Chloro-1-[4-(4-chloro-5-methyl-isoxazol-3-yl)-cyclohexyl]-5-methyl-5,6-dihydro-4H-2,3,5,10b-tetraaza-benzo[e]azulene], the Ki is 0.603 nM.

Take `Cc1onc([C@H]2CC[C@H](c3nnc4n3-c3ccc(Cl)cc3CN(C(=O)OC(C)(C)C)C4)CC2)c1F` [Example 45, trans-8-Chloro-1-[4-(4-fluoro-5-methyl-isoxazol-3-yl)-cyclohexyl]-4H,6H-2,3,5,10b-tetraaza-benzo[e]azulene-5-carboxylic acid tert-butyl ester]: the Ki is 0.724 nM. The same measure, in the same setting: the same measure for `Cc1onc([C@H]2CC[C@H](c3nnc4n3-c3ccc(Cl)cc3CNC4)CC2)c1F` [Example 46, trans-8-Chloro-1-[4-(4-fluoro-5-methyl-isoxazol-3-yl)-cyclohexyl]-5,6-dihydro-4H-2,3,5,10b-tetraaza-benzo[e]azulene]: 8.51 nM; for `Cc1onc([C@H]2CC[C@H](c3nnc4n3-c3ccc(Cl)cc3CN(C)C4)CC2)c1F` [Example 47, trans-8-Chloro-1-[4-(4-fluoro-5-methyl-isoxazol-3-yl)-cyclohexyl]-5-methyl-5,6-dihydro-4H-2,3,5,10b-tetraaza-benzo[e]azulene]: 0.575 nM; for `CCc1cc([C@H]2CC[C@@H](c3nnc4n3-c3ccc(Cl)cc3CN(C(=O)OC(C)(C)C)C4)CC2)no1` [Example 48, cis-8-Chloro-1-[4-(5-ethyl-isoxazol-3-yl)-cyclohexyl]-4H,6H-2,3,5,10b-tetraaza-benzo[e]azulene-5-carboxylic acid tert-butyl ester]: 8.32 nM.
